Measured values as given in patent EP1510220B1 (priority 1993, dated 1994).

What was measured:
[1] = system: mink lung endothelial (MvLu) cells; assay: DNA synthesis of MvLu cells, direct addition of agent; type: cell-based; settings: 50 micromolar in fresh DMEM + 10% FCS
Method: Assays for TGF-Beta. The TGF-beta activity present in medium conditioned on various cells was determined by DNA synthesis assay on mink lung […] (MvLu) cells; a modification of the assay described in Danielpour et al., J. Cell. Physiol., 138: 79-83, 1989. MvLu cells were subcultured at 1:5 dilution in DMEM + 10% FCS. After 24 hours, the medium was replaced with the conditioned medium to be tested in the absence or presence of the neutralizing antiserum to TGF-beta at 10 micrograms/ml. DNA synthesis during a 1 hour pulse of [^3H]-thymidine (5 microcuries/ml) was determined 23 hours after addition of the test medium. TGF-beta activity was calculated as the proportion of the inhibition of DNA synthesis which was reversed in the presence of neutralizing antibody, using a standard curve to convert the inhibition values into quantities of TGF-beta. The TGF-beta1 standards and conditioned media both contained 10% FCS in DMEM.

[2] = system: Vascular smooth muscle cells; assay: DNA synthesis by [3H]-thymidine incorporation in rat vascular smooth muscle cells; type: cell-based; settings: between 12 and 24 hours after stimulation, control 17614 +/- 1714 cpm
Method: DNA synthesis was assayed by [^3H]-thymidine incorporation as described in Grainger et al., Biochem. J., 277:145-151, 1991. Vascular smooth muscle cells were subcultured, grown in DMEM + 10% FCS for 24 hours, made quiescent in serum-free DMEM for 48 hours and restimulated with 10% FCS at "0" hours. [^3H]-thymidine (5 microcuries/ml; available from Amersham International) was added 12 hours after restimulation and the cells were harvested after 24 hours. DNA synthesis by adventitial fibroblasts was determined similarly, except that the cells were made quiescent in serum-free DMEM for 24 hours.

[3] = system: B054 cells (baboon smooth muscle cells); assay: cells; type: cell-based
[4] = system: Vascular smooth muscle cells (BO54); assay: Scratch-migration assay with morphological toxicity grading; type: cell-based, baboon; set-up: key: - = no toxicity; +1 = minimal; +2 = mild; +3 = moderate; +4 = marked toxicity
Method: Scratch assays to determine the extent of smooth muscle cell migration inhibition by cytochalasin B were performed in accordance with the following protocol:
Vascular smooth muscle cells (BO54) were derived from explants of baboon aortic smooth muscle, as described in Example 1. The cells were grown in flat bottom, six well tissue culture plates, which hold about 5 ml of medium. The vascular smooth muscle cells were plated at 200,000 cells/well and placed at 37°C in a humidified 5% CO2 incubator for 18 hours. The wells were then scratched with a sterile portion of a single edge razor blade that was held by clamp or pliers and was brought aseptically into contact with the bottom of the well at a 90° angle. The cells from a small area along the scratch were removed by a sterile cotton tipped applicator while the blade was in contact with the bottom of the well. After incubation, the presence of cells in the "scratched" area is indicative of cell migration across the scratch line.
Briefly, a stock solution of cytochalasin B (Sigma Chemical Co.) in dimethyl sulfoxide (DMSO) at 1 mg/ml was prepared. Test dilutions of cytochalasin B or control medium were added. Each experiment included two sets of plates: • A set: Test agent exposure for 1, 3, 6, 8 and 10 days only; and • B set: Test agent exposure for 1, 3, 6, 8 and 10 days, followed by a seven day recovery time with control medium. Both sets of plates were fixed (10% formalin in PBS) and stained (0.02% crystal violet) at the end of the timed exposures. Test concentrations for cytochalasin B were 1, 0.1 and 0.01 µg/ml, and a negative medium control was included. Fresh medium and drug were supplied 3 times per week.
In this Table, "M" indicates Migration Grade, wherein - = no migration; +1 = minimal; +2 = mild; +3 = moderate; and +4 = marked (maximum density; limit of cell contact inhibition) migration of vascular smooth muscle cells into the cleared area adjacent to the scratch. In this Table, "T" denotes a morphological Toxicity Grade, wherein - = no toxicity; +1 = minimal; +2 = mild; +3 = moderate; and +4 = marked toxicity. The migration results are expressed as "Grade in the Cleared Area of the Well / Grade in an Undisturbed Region of the Well." The toxicity values represent a grade for all cells in each well.

## CC/C(=C(\c1ccccc1)c1ccc(OCCN(C)C)cc1)c1ccccc1 [tamoxifen, trans-2-[4-(1,2-diphenyl-1-butenyl)phenoxy]-N,N-dimethylethylamine]
[1]
  effect on DNA synthesis of MvLu cells: no effect on DNA synthesis
[2]; 10 micromolar
  DNA synthesis, [3H]-thymidine incorporation: 16898 +/- 3417 cpm
[2]; 50 micromolar
  DNA synthesis, [3H]-thymidine incorporation: 18002 +/- 4167 cpm

## cytochalasin B
[3]; 5 minute exposure
  minimum effective dose (MED), protein synthesis assay: 10 µg/mL
[3]; 24 hour exposure
  minimum effective dose (MED), protein synthesis assay: 1.0 µg/mL
[4]; 7-day Recovery Post Exposure, 0.01 µg/mL, Day 1
  morphological Toxicity Grade: -
[4]; 7-day Recovery Post Exposure, 0.01 µg/mL, Day 3
  morphological Toxicity Grade: -
[4]; 7-day Recovery Post Exposure, 0.01 µg/mL, Day 6
  morphological Toxicity Grade: -
[4]; 7-day Recovery Post Exposure, 0.01 µg/mL, Day 8
  morphological Toxicity Grade: -
[4]; 7-day Recovery Post Exposure, 0.01 µg/mL, Day 10
  morphological Toxicity Grade: -
[4]; 7-day Recovery Post Exposure, 0.1 µg/mL, Day 1
  morphological Toxicity Grade: -
[4]; 7-day Recovery Post Exposure, 0.1 µg/mL, Day 3
  morphological Toxicity Grade: -
[4]; 7-day Recovery Post Exposure, 0.1 µg/mL, Day 6
  morphological Toxicity Grade: -
[4]; 7-day Recovery Post Exposure, 0.1 µg/mL, Day 8
  morphological Toxicity Grade: -
[4]; 7-day Recovery Post Exposure, 0.1 µg/mL, Day 10
  morphological Toxicity Grade: -
[4]; Continuous Exposure, 0.01 µg/mL, Day 1
  morphological Toxicity Grade: -
[4]; Continuous Exposure, 0.01 µg/mL, Day 3
  morphological Toxicity Grade: -
[4]; Continuous Exposure, 0.01 µg/mL, Day 6
  morphological Toxicity Grade: -
[4]; Continuous Exposure, 0.01 µg/mL, Day 8
  morphological Toxicity Grade: -
[4]; Continuous Exposure, 0.01 µg/mL, Day 10
  morphological Toxicity Grade: -
[4]; Continuous Exposure, 0.1 µg/mL, Day 1
  morphological Toxicity Grade: -
[4]; Continuous Exposure, 1.0 µg/mL, Day 6
  morphological Toxicity Grade: +4
[4]; Continuous Exposure, 1.0 µg/mL, Day 8
  morphological Toxicity Grade: +4
[4]; Continuous Exposure, 1.0 µg/mL, Day 10
  morphological Toxicity Grade: +4
